In assay [1] the target is T1, TRPC5 channel (Homo sapiens, UniProt Q9UL62).
T1 construct: expressed in transfected cells; host or cells: HEK293/TREx (Invitrogen), tetracycline-induced
T1 sequence (Q9UL62 1-973): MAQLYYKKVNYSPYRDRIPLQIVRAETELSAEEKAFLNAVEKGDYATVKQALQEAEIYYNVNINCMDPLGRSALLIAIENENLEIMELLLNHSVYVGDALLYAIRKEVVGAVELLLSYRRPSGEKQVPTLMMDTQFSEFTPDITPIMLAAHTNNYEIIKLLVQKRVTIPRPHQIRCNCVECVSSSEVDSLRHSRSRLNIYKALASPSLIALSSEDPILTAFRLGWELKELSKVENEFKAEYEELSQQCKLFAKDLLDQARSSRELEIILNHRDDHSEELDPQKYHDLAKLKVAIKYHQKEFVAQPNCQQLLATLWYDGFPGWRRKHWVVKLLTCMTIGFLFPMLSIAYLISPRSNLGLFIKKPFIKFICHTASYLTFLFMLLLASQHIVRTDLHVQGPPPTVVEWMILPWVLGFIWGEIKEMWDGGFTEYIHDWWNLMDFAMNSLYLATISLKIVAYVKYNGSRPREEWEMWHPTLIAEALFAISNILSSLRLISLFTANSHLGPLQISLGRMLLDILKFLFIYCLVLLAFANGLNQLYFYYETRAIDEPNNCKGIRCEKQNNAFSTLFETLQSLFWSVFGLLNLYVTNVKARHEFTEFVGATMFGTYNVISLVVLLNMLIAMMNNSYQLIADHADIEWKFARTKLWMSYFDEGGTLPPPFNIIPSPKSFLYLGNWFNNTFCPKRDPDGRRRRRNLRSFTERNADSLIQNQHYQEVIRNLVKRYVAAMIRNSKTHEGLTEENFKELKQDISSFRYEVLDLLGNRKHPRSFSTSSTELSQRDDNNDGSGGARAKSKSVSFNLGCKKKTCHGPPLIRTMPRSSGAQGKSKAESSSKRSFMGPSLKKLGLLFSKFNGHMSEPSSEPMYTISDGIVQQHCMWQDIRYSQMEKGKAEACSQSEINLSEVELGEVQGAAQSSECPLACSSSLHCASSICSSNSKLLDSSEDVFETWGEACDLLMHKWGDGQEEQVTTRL
As to the kind of experiment: High throughput screening assay: Fluo4 cell-based fluorescence Ca2+ influx assay. The settings on record: HEK293/TREx cells inducibly expressing TRPC5, inhibition of [Ca2+]i rise after high-Ca2+ Ringer (14 mM Ca2+), triplicate, 0.027-20 μM. The text has this: The assay depended on detection of the rise in intracellular Ca2+ concentration ([Ca2+]i) following channel activation in cells inducibly expressing the TRPC5 channel. Ca2+ rise was quantified with the use of fluorescent Ca2+ indicators that were loaded into cells and thereafter indicated the [Ca2+]i Ca2+ influx followed activation of the TRPC5 channel. Compounds inhibiting the [Ca2+]i rise were considered hits for further investigation.
The commercially available HEK293/TREx line (Invitrogen) was stably transfected with a TRPC5 construct and screened by conventional calcium imaging to find clones with TRPC5 expression following stimulation with 1 μg/ml tetracycline. These cells were maintained in the growth medium recommended by the manufacturer supplemented with 100 μg/ml hygromycin to promote retention of the TRPC5 construct. After growing to near confluency, cells were plated at a density of ˜35,000 cells/well in 384 well CellBind plates (Corning) in the presence of 1 μg/ml tetracycline, and allowed to grow for 20-30 hrs. A nearly confluent monolayer resulted. Cells were then loaded with Ca2+ dye: Fura-2/AM or Fluo4/AM was added to the wells to a final concentration of 4 μM or 0.5 μM, respectively, and incubated for 80 min or 60 min, respectively, at room temperature. Supernatant was then removed from the cells by inverting plates with a sharp flick, and 25 μl Hank's Balanced Salt Solution (HBSS; 0.185 g/l D-glucose, 0.9767 g/l MgSO4 (anhydrous), 0.4 g/l KCl, 0.06 g/l KH2PO4 (anhydrous), 0.35 g/l NaHCO3, 8.0 g/l NaCl, and 0.04788 g/l Na2HPO4 (anhydrous); pH 7.4) was then added to each well. Following ˜0.5 hour for recovery from loading, cells were assayed using the Hamamatsu FDSS 6000 system, which permitted illumination alternately at 340 nm and 380 nm for Fura-2 experiments, or at 485 nm for Fluo4 experiments. Frames were acquired at a rate of 0.2 Hz. During the assay, the plates were continuously vortexed, with pipette mixing of wells following addition of each reagent. For the screening assay, 26 μl of a diluted compound stock (at 50 μM) was added to each well for 2 minutes following the collection of a short (4 frame) baseline. 13 μl 62 mM high-Ca2+ Ringer solution (4.17 ml of normal ringer (with 2 mM Ca2+) plus 5.83 ml of isotonic calcium ringer (105 mM Ca2+; in this ringer all sodium has been replaced with calcium)) was then added to each well, achieving a final concentration of 14 mM Ca2+ and 10 μM test compound. Data was collected for ˜3 minutes following addition of high Ca2+ Ringer, where the fluorescent intensity (for Fluo4) and the F340/F380 ratio (for Fura-2) were proportional to the [Ca2+]i Negative controls consisted of HEK293/TREx TRPC5 cells exposed to high Ca2+ solution, but no compound. Positive control conditions consisted of addition of 2-APB, a promiscuous blocker of TRPC5 and other channels, to columns 23 and 24 of the plates, to a final concentration of 200 μM. These controls defined a screening window, and “hits” were defined as those compounds inhibiting the fluorescence response by at least 40%. IC50 values were determined for compounds defined as “hits.” The Fluo4 cell-based fluorescence assay was used to determine the intracellular Ca2+ concentration in the presence of varying drug concentration. Final concentrations of compounds tested were 20 μM, 6.667 μM, 2.222 μM, 0.741 μM, 0.247 μM, 0.082 μM, and 0.027 μM. Compounds were tested in triplicate at all concentrations. Standard software was used to fit IC50 curves. A value of NF was assigned when no IC50 curves could not be fit.
Additionally or alternatively, efficacy can be represented as % inhibition in the presence (of a given concentration of compound) versus the absence of compound or in comparison to a control compound. For example, efficacy can be represented as % inhibition of ion flux in the presence versus the absence of compound.

Assay [2] concerns the target T1, TRPC5 channel. As to the kind of experiment: Whole-cell patch clamp experiments on TRPC5 current. It counts as cell-based. The settings on record: TRPC5-expressing HEK293 TREx cells, current activated by LaCl3, holding potential −40 mV, currents quantified at −80 mV and +80 mV. The text has this: Patch clamp experiments permit the detection of currents through the TRPC5 channel in the cell line described above. In normal whole-cell patch clamp recordings, a glass electrode is brought into contact with a single cell and a high-resistance (gigaohm) seal is established with the cell membrane. The membrane is then ruptured to achieve the whole-cell configuration, permitting control of the voltage of the cell membrane and measurement of currents flowing across the membrane using the amplifier attached to the electrode and resulting in the replacement of cytoplasm with the pipette solution. A perfusion system permits control of the extracellular solution, including the addition of blockers and activators of the current. The current can be activated by including 1.4 μM free Ca^2+ in the pipette (intracellular) solution, and 80 μM LaCl3 in the extracellular solution.
TRPC5 cells were induced 20-48 hours, removed from growth plates, and replated at low density (to attain good single-cell physical separation) on glass coverslips for measurement. In some cases, cells were grown in low density overnight on glass coverslips. […] Currents elicited were quantified at −80 mV and +80 mV. The internal solution consisted of 140 mM cesium aspartate, 10 mM HEDTA, 2 mM CaCl2, 2.27 mM MgCl2 and 10 mM HEPES, pH 7.2, with 1,400 nM calculated free Ca^2+. […]
In general terms: The patch-clamp technique gives a direct electrical read-out from membranes.

This passage reports IC50 results from US9440973B2, “Pyrido[3,4-d]pyrimidine-2,4(1H,3H)-dione derivatives” (Hydra Biosciences, Inc., priority 2014, dated 2016).

Structures are written as SMILES.

As for `CC(C)c1ccccc1-c1cc2c(=O)n(CCCO)c(=O)n(C)c2cn1` [Compound 46, 3-(3-hydroxypropyl)-6-(2-isopropylphenyl)-1-methylpyrido[3,4-d]pyrimidine-2,4(1H,3H)-dione], inhibition on TRPC5 channel [1] was half-maximal at 4240 nM (IC50).

Turning to `Cn1c(=O)n(CCCO)c(=O)c2c(Cc3ccc(Cl)cc3)c(-c3ccc(Cl)cc3)ncc21` [Compound 47, 5-(4-chlorobenzyl)-6-(4-chlorophenyl)-3-(3-hydroxypropyl)-1-methylpyrido[3,4-d]pyrimidine-2,4(1H,3H)-dione], the IC50 (usually the midpoint of a concentration-inhibition curve) at TRPC5 channel [1] was 1610 nM.

For `CC(C)CCc1c(-c2ccc(Cl)cc2)ncc2c1c(=O)n(CCCO)c(=O)n2C` [Compound 48, 6-(4-chlorophenyl)-3-(3-hydroxypropyl)-5-isopentyl-1-methylpyrido[3,4-d]pyrimidine-2,4(1H,3H)-dione], on TRPC5 channel [1], the IC50 came out at 1600 nM.

For `CC(C)c1ccccc1-c1ncc2c(c1Cc1ccc(Cl)cc1)c(=O)n(CCCO)c(=O)n2C` [Compound 49, 5-(4-chlorobenzyl)-3-(3-hydroxypropyl)-6-(2-isopropylphenyl)-1-methylpyrido[3,4-d]pyrimidine-2,4(1H,3H)-dione], the IC50 against TRPC5 channel [1] amounted to 2360 nM; on TRPC5 channel [2] it was 38.8 nM.

The compound `CC(C)CCc1c(-c2ccccc2C(C)C)ncc2c1c(=O)n(CCCO)c(=O)n2C` [Compound 50, 3-(3-hydroxypropyl)-5-isopentyl-6-(2-isopropylphenyl)-1-methylpyrido[3,4-d]pyrimidine-2,4(1H,3H)-dione] came in with a half-inhibitory concentration (IC50) against TRPC5 channel [1] of 9800 nM.

`Cn1c(=O)n(CCCO)c(=O)c2c(Cc3ccc(Cl)cc3)c(Oc3cccc(Cl)c3)ncc21` [Compound 51, 5-(4-chlorobenzyl)-6-(3-chlorophenoxy)-3-(3-hydroxypropyl)-1-methylpyrido[3,4-d]pyrimidine-2,4(1H,3H)-dione] had a 50% inhibitory concentration (IC50) on TRPC5 channel [1] of 8840 nM.

The compound `CC(C)CCc1c(-c2cccc(Cl)c2)ncc2c1c(=O)n(CCCO)c(=O)n2C` [Compound 52, 6-(3-chlorophenyl)-3-(3-hydroxypropyl)-5-isopentyl-1-methylpyrido[3,4-d]pyrimidine-2,4(1H,3H)-dione] registered an IC50 on TRPC5 channel [1] of 4180 nM.

`Cn1c(=O)n(CCCO)c(=O)c2c(Cc3ccccc3)c(-c3cccc(OC(F)(F)F)c3)ncc21` [Compound 53, 5-benzyl-3-(3-hydroxypropyl)-1-methyl-6-(3-(trifluoromethoxy)phenyl)pyrido[3,4-d]pyrimidine-2,4(1H,3H)-dione] came in with an IC50 on TRPC5 channel [1] of 195 nM.
